# Measured values taken from the NIST ThermoML archive (doi:10.1016/j.fluid.2013.11.031).
# Numbers after ± are expanded uncertainties.
# Settings: Liquid, Vibrating tube method
smiles,measurement,setting,value
CCCO [propan-1-ol],mass density,"293.15 K, 100 kPa",803.8 ± 0.8 kg/m3
same,mass density,"293.15 K, 10000 kPa",811.3 ± 0.8 kg/m3
same,mass density,"293.15 K, 20000 kPa",818.1 ± 0.8 kg/m3
same,mass density,"293.15 K, 30000 kPa",824.4 ± 0.9 kg/m3
same,mass density,"293.15 K, 40000 kPa",830 ± 0.9 kg/m3
same,mass density,"293.15 K, 50000 kPa",835.6 ± 0.9 kg/m3
same,mass density,"293.15 K, 60000 kPa",841 ± 0.9 kg/m3
same,mass density,"293.15 K, 70000 kPa",845.9 ± 1 kg/m3
same,mass density,"293.15 K, 80000 kPa",850.7 ± 1 kg/m3
same,mass density,"293.15 K, 90000 kPa",855.2 ± 1 kg/m3
same,mass density,"293.15 K, 100000 kPa",859.6 ± 1 kg/m3
same,mass density,"293.15 K, 110000 kPa",863.7 ± 1.1 kg/m3
same,mass density,"293.15 K, 120000 kPa",867.8 ± 1.1 kg/m3
same,mass density,"293.15 K, 130000 kPa",871.6 ± 1.1 kg/m3
same,mass density,"293.15 K, 140000 kPa",875.3 ± 1.1 kg/m3
same,mass density,"313.15 K, 100 kPa",787.1 ± 0.8 kg/m3
same,mass density,"313.15 K, 10000 kPa",795.5 ± 0.8 kg/m3
same,mass density,"313.15 K, 20000 kPa",803 ± 0.8 kg/m3
same,mass density,"313.15 K, 30000 kPa",810 ± 0.9 kg/m3
same,mass density,"313.15 K, 40000 kPa",816.4 ± 0.9 kg/m3
same,mass density,"313.15 K, 50000 kPa",822.3 ± 0.9 kg/m3
same,mass density,"313.15 K, 60000 kPa",827.9 ± 0.9 kg/m3
same,mass density,"313.15 K, 70000 kPa",833.2 ± 1 kg/m3
same,mass density,"313.15 K, 80000 kPa",838.3 ± 1 kg/m3
same,mass density,"313.15 K, 90000 kPa",843 ± 1 kg/m3
same,mass density,"313.15 K, 100000 kPa",847.9 ± 1.1 kg/m3
same,mass density,"313.15 K, 110000 kPa",852.3 ± 1.1 kg/m3
same,mass density,"313.15 K, 120000 kPa",856.6 ± 1.1 kg/m3
same,mass density,"313.15 K, 130000 kPa",860.7 ± 1.1 kg/m3
same,mass density,"313.15 K, 140000 kPa",864.6 ± 1.1 kg/m3
same,mass density,"333.15 K, 100 kPa",769.9 ± 0.8 kg/m3
same,mass density,"333.15 K, 10000 kPa",780 ± 0.8 kg/m3
same,mass density,"333.15 K, 20000 kPa",788.3 ± 0.8 kg/m3
same,mass density,"333.15 K, 30000 kPa",795.7 ± 0.9 kg/m3
same,mass density,"333.15 K, 40000 kPa",802.5 ± 0.9 kg/m3
same,mass density,"333.15 K, 50000 kPa",809 ± 0.9 kg/m3
same,mass density,"333.15 K, 60000 kPa",815 ± 1 kg/m3
same,mass density,"333.15 K, 70000 kPa",820.6 ± 1 kg/m3
same,mass density,"333.15 K, 80000 kPa",826.2 ± 1 kg/m3
same,mass density,"333.15 K, 90000 kPa",831.2 ± 1 kg/m3
same,mass density,"333.15 K, 100000 kPa",836.3 ± 1.1 kg/m3
same,mass density,"333.15 K, 110000 kPa",840.9 ± 1.1 kg/m3
same,mass density,"333.15 K, 120000 kPa",845.3 ± 1.1 kg/m3
same,mass density,"333.15 K, 130000 kPa",849.6 ± 1.2 kg/m3
same,mass density,"333.15 K, 140000 kPa",853.6 ± 1.2 kg/m3
same,mass density,"353.15 K, 100 kPa",752 ± 0.8 kg/m3
same,mass density,"353.15 K, 10000 kPa",762.5 ± 0.8 kg/m3
same,mass density,"353.15 K, 20000 kPa",771.8 ± 0.8 kg/m3
same,mass density,"353.15 K, 30000 kPa",780.2 ± 0.9 kg/m3
same,mass density,"353.15 K, 40000 kPa",787.9 ± 0.9 kg/m3
same,mass density,"353.15 K, 50000 kPa",795 ± 0.9 kg/m3
same,mass density,"353.15 K, 60000 kPa",801.4 ± 1 kg/m3
same,mass density,"353.15 K, 70000 kPa",807.7 ± 1 kg/m3
same,mass density,"353.15 K, 80000 kPa",813.4 ± 1 kg/m3
same,mass density,"353.15 K, 90000 kPa",818.7 ± 1.1 kg/m3
same,mass density,"353.15 K, 100000 kPa",823.8 ± 1.1 kg/m3
same,mass density,"353.15 K, 110000 kPa",828.8 ± 1.1 kg/m3
same,mass density,"353.15 K, 120000 kPa",833.5 ± 1.2 kg/m3
same,mass density,"353.15 K, 130000 kPa",837.9 ± 1.2 kg/m3
same,mass density,"353.15 K, 140000 kPa",842.1 ± 1.2 kg/m3
